Reference: patent US20260274814A1, “THIENYL COMPOUNDS FOR THE TREATMENT OF A CENTRAL NERVOUS SYSTEM DISEASE OR DISORDER” (Coreterra Therapeutics, Inc., priority 2023, published 2026)
Where a name gives a salt, the structure may show the parent alone.

System: mice
Experiment: Neuropharmacological Assay (SmartCube): automated behavioral signature of compound-treated mice compared with a database of reference drug classes
Type: in vivo
Settings: for AD / AG / AN / AP / CE / HL / PS / SH / AX / MS / UK: probability that activity matches this class of agents, 3.0 mg/kg i.p., 15 min before test
From the text: Neurosci. 2011 Sep. 9; 5: 103 (doi: 10.3389/fnins.2011.00103) (“Roberds”). As reported in Roberds, because psychiatric diseases generally result from disorders of cell-cell communication or circuitry, intact systems are useful in detecting improvement in disease-relevant endpoints. These endpoints are typically behavioral in nature, often requiring human observation and interpretation. To facilitate testing of multiple compounds for behavioral effects relevant to psychiatric disease, PsychoGenics, Inc. (Tarrytown, NY, “PGI”) developed SmartCube™ an automated system in which behaviors of compound-treated mice are captured by digital video and analyzed with computer algorithms. (D. Brunner et al. Drug Discov. Today 2002, 7:S107-S112). PGI Analytical Systems uses data from SmartCube™ to compare the behavioral signature of a test compound to a database of behavioral signatures obtained using a large set of diverse reference compounds. (The composition of the database as well as validation of the method is further described in Roberds). In this way, the neuropharmacological effects of a test compound can be predicted by similarity to major classes of compounds, such as antipsychotics, anxiolytics and antidepressants.
The SmartCube™ system produces an activity signature indicating the probability that the activity of the test compound at the administered dose matches a given class of neuropharmacological agents. (See, e.g., Roberds, FIGS. 2 and 3). The test compound is simultaneously compared against multiple classes of agents; thus, a separate probability is generated for each behavioral effect measured (e.g., anxiolytic activity, analgesic activity, etc.). In table 2 below, these probabilities are reported for each behavioral effect measured as described in Table 1 below.
Provided compounds were dissolved in a mixture of Pharmasolve™ (N-methyl-2-pyrrolidone), polyethylene glycol and propylene glycol, and were injected i.p. 15 min. before the behavioral test. For each compound, injections were administered at 3 different doses. For each behavioral effect measured, results for the 3.0 mg/kg dose are presented. The potency of many of the compounds in the table was also determined in the SmartCube™ system. Test compounds were routinely examined at dose levels of 0.3, 1, 3 and 10 mg per kg (mpk), although the dose range was increased or decreased, if necessary, to obtain a full dose response curve. A compound's minimal effective dose (MED) is a measure of the compound's potency. The MED was defined as the dose (in mpk) having 45% or more total activity in SmartCube. If only one dose was tested, that dose is shown in the MED column of Table 2 even though the dose is not known to be the MED.

[1] = dose having 45% or more total activity in SmartCube, i.p., if only one dose was tested, that dose is shown, hydrochloride

Row | Compound | MED (minimal effective dose) [1] | AD | AG | AN | AP | CE | HL | PS | SH | AX (hydrochloride, 3 mg/kg) | UK (hydrochloride, 3 mg/kg) | AX | MS | UK | AD (hydrochloride, 3 mg/kg) | AP (hydrochloride, 3 mg/kg) | HL (hydrochloride, 3 mg/kg) | further results
1 | CNC1CCc2c(csc2C(F)(F)F)C1 (single isomer, unassigned) [Compound 64, N-methyl-1-(trifluoromethyl)-4,5,6,7-tetrahydro-2-benzothiophen-5-amine hydrochloride] | 10 mpk | + (≥4%) | ND (^ <4%) | ND (^ <4%) | ND (^ <4%) | ND (^ <4%) | ND (^ <4%) | ND (^ <4%) | ND (^ <4%) | ND (^ <4%) | ++ (≥24%) |  |  |  |  |  |  | MS (hydrochloride, 3 mg/kg): ND (^ <4%)
2 | Cc1csc2c1CCC(N)C2 (single isomer, unassigned) [Compound 65, 3-methyl-4,5,6,7-tetrahydrobenzothiophen-6-amine hydrochloride] | 3 mpk |  | ND (^ <4%) | ND (^ <4%) |  | ND (^ <4%) |  |  | ND (^ <4%) |  |  | ND (^ <4%) | ND (^ <4%) | ND (^ <4%) | +++ (≥49%) | ND (^ <4%) | + (≥4%) | PS (hydrochloride, 3 mg/kg): + (≥4%)
3 | Cc1csc2c1CCC(N)C2 (single isomer, unassigned) [Compound 66, 3-methyl-4,5,6,7-tetrahydrobenzothiophen-6-amine hydrochloride] | 1 mpk |  | ND (^ <4%) | ND (^ <4%) |  | ND (^ <4%) |  |  | ND (^ <4%) |  |  | ND (^ <4%) | ND (^ <4%) | ND (^ <4%) | ND (^ <4%) | ++++ (≥74%) | ND (^ <4%) | PS (hydrochloride, 3 mg/kg): ND (^ <4%)
4 | Cc1sc2c(c1C)CCC(N)C2 (single isomer, unassigned) [Compound 67, 2,3-dimethyl-4,5,6,7-tetrahydrobenzothiophen-6-amine hydrochloride] |  |  | ND (^ <4%) | ND (^ <4%) | ND (^ <4%) | ND (^ <4%) |  | ND (^ <4%) | ND (^ <4%) |  |  | ND (^ <4%) | ND (^ <4%) | ND (^ <4%) | +++ (≥49%) |  | ND (^ <4%) | minimal effective dose (Mus musculus, ip, dose having 45% or more total activity in SmartCube, i.p., if only one dose was tested, that dose is shown, read-out: MED (minimal effective dose)): 3 mg/kg
5 | Cc1sc2c(c1C)CCC(N)C2 (single isomer, unassigned) [Compound 68, 2,3-dimethyl-4,5,6,7-tetrahydrobenzothiophen-6-amine hydrochloride] |  |  | ND (^ <4%) | ND (^ <4%) | ND (^ <4%) | ND (^ <4%) |  | ND (^ <4%) | ND (^ <4%) |  |  | ND (^ <4%) | ND (^ <4%) | ND (^ <4%) | ++ (≥24%) |  | + (≥4%) | MED (minimal effective dose) (dose having 45% or more total activity in SmartCube, i.p., if only one dose was tested, that dose is shown): 3 mpk
6 | CNC1CCc2scc(C)c2C1.Cl (single isomer, unassigned) [Compound 69, N, 3-dimethyl-4,5,6,7-tetrahydrobenzothiophen-5-amine hydrochloride] | 3 mpk | ND (^ <4%) | ND (^ <4%) | ND (^ <4%) |  | ND (^ <4%) | ND (^ <4%) | ND (^ <4%) | ND (^ <4%) | ND (^ <4%) | +++ (≥49%) |  | ND (^ <4%) |  |  | ND (^ <4%) |  | 
7 | CNC1CCc2scc(C)c2C1.Cl (single isomer, unassigned) [Compound 70, N, 3-dimethyl-4,5,6,7-tetrahydrobenzothiophen-5-amine hydrochloride] | 1 mpk | ND (^ <4%) | ND (^ <4%) | ND (^ <4%) |  | ND (^ <4%) | ND (^ <4%) | ND (^ <4%) | ND (^ <4%) | + (≥4%) | ND (^ <4%) |  | ND (^ <4%) |  |  | +++ (≥49%) |  | 
8 | CNC1CCc2csc(F)c2C1 (single isomer, unassigned) [Compound 73, 3-fluoro-N-methyl-4,5,6,7-tetrahydro-2-benzothiophen-5-amine hydrochloride] | 1 mpk |  | ND (^ <4%) | ND (^ <4%) |  | ND (^ <4%) | ND (^ <4%) | ND (^ <4%) | ND (^ <4%) | ++++ (≥74%) |  |  | ND (^ <4%) | ND (^ <4%) | ND (^ <4%) | ND (^ <4%) |  | 
9 | CNC1CCc2csc(F)c2C1 (single isomer, unassigned) [Compound 74, 3-fluoro-N-methyl-4,5,6,7-tetrahydro-2-benzothiophen-5-amine hydrochloride] | 3 mpk |  | ND (^ <4%) | ND (^ <4%) |  | ND (^ <4%) | ND (^ <4%) | ND (^ <4%) | ND (^ <4%) | ND (^ <4%) |  |  | ND (^ <4%) | ND (^ <4%) | + (≥4%) | ++++ (≥74%) |  | 
10 | CNC1CCc2c(csc2F)C1 (single isomer, unassigned) [Compound 75, 1-fluoro-N-methyl-4,5,6,7-tetrahydro-2-benzothiophen-5-amine hydrochloride] | 1 mpk | ND (^ <4%) | ND (^ <4%) | ND (^ <4%) |  | ND (^ <4%) | ND (^ <4%) | ND (^ <4%) | ND (^ <4%) | ND (^ <4%) |  |  | ND (^ <4%) | ND (^ <4%) |  | ++++ (≥74%) |  | 
11 | CNC1CCc2c(csc2F)C1 (single isomer, unassigned) [Compound 76, 1-fluoro-N-methyl-4,5,6,7-tetrahydro-2-benzothiophen-5-amine hydrochloride] | 3 mpk | ND (^ <4%) | ND (^ <4%) | ND (^ <4%) |  | ND (^ <4%) | ND (^ <4%) | ND (^ <4%) | ND (^ <4%) | ++ (≥24%) |  |  | ND (^ <4%) | ND (^ <4%) |  | ++ (≥24%) |  | 
12 | CNC1CCc2c(F)sc(F)c2C1 (single isomer, unassigned) [Compound 77, 1,3-difluoro-N-methyl-4,5,6,7-tetrahydro-2-benzothiophen-5-amine hydrochloride] | 0.3 mpk |  | ND (^ <4%) | ND (^ <4%) | ++ (≥24%) | ND (^ <4%) | ND (^ <4%) | ND (^ <4%) | ND (^ <4%) | + (≥4%) | ND (^ <4%) |  | ND (^ <4%) |  | ++ (≥24%) |  |  | 
13 | CNC1CCc2c(F)sc(F)c2C1 (single isomer, unassigned) [Compound 78, 1,3-difluoro-N-methyl-4,5,6,7-tetrahydro-2-benzothiophen-5-amine hydrochloride] | 1 mpk |  | ND (^ <4%) | ND (^ <4%) | ++ (≥24%) | ND (^ <4%) | ND (^ <4%) | ND (^ <4%) | ND (^ <4%) | ++ (≥24%) | + (≥4%) |  | ND (^ <4%) |  | ND (^ <4%) |  |  | 
